Source: patent US10919785B2, “Hydraulic conveyor of floating objects provided with a device for sanitising conveying composition, plant provided with such a conveyor and sanitising method” (MAF AGROBOTIC, priority 2016, dated 2021)

Assays:
[1] = format: physicochemical; settings: 250 μg/l
Text: (§1) A semi-industrial pilot device in accordance with one aspect of the invention comprises a tank for recirculating water to be treated of a volume of 1000 l, a circulation pump ensuring a circulation flow of the water to be treated in a sanitising device with a flow rate between 4 m^3 to 8 m^3/h. The sanitising device comprises a photolysis chamber comprising an inlet for water from the recirculation tank and an outlet for sanitised water directed to the recirculation tank. The photolysis chamber is formed of a rigid tubular envelope, of which the external wall is opaque to light and forming an inner space suitable for receiving five fluorescent tubes with a longitudinal axis extending in parallel with the longitudinal axis of the rigid tubular envelope. The inner volume of the decontamination reactor is in the order of […].
The five fluorescent tubes are tubes of 200 W emitting light at a wavelength of 254 nm and arranged longitudinally in the tubular envelope at the five points of a regular pentagon and in contact with the water to be treated flowing in the photolysis chamber. In this configuration of the sanitising device, the water to be sanitised flowing in contact with the five fluorescent tubes is subjected to substantially homogeneous illumination in the order of 500 mJ/cm^2 for a circulation flow rate of water to be sanitised in the order of 6 m^3/h. The semi-industrial pilot device also comprises a tank for storing an aqueous solution of hydrogen peroxide (H2O2) provided with a pump for distributing said solution in the circulation flow of water to be sanitised issuing into the circuit of water to be sanitised upstream of and in proximity to the photolysis chamber. The concentration of the hydrogen peroxide in the aqueous solution of hydrogen peroxide is between 2 m g/l and 13 mg/l. The set-point flow rate of the pump for distributing solution of H2O2 is kept at 4 l/h.
The flow rate of the recycling pump is 6 m^3/h and the initial boscalid concentration in the recirculation tank is 250 μg/l. The 5 lamps of the sanitising device are switched on. […]

[2] = Example 6: pilot device, degradation of different amounts of boscalid (FIG. 7); format: physicochemical; settings: boscalid 25, 80 and 200 μg/l; hydrogen peroxide 2 mg/l continuously added; 6 m^3/h
Text: as §1
The five fluorescent tubes are tubes of 200 W emitting light at a wavelength of 254 nm and arranged longitudinally in the tubular envelope at the five points of a regular pentagon and in contact with the water to be treated flowing in the photolysis chamber. In this configuration of the sanitising device, the water to be sanitised flowing in contact with the five fluorescent tubes is subjected to substantially homogeneous illumination in the order of 500 mJ/cm^2 for a circulation flow rate of water to be sanitised in the order of 6 m^3/h. […]

[3] = format: physicochemical; settings: 10 min, 25 μg/l
Text: The semi-industrial pilot device comprises a tank for composition to be treated of a volume of 1000 l, a circulation pump ensuring a flow of composition to be treated in a sanitising device with a flow rate of 6 m^3/h. The sanitising device comprises a single photolysis chamber comprising an inlet for water from the tank of composition to be treated and an outlet for sanitised water directed to the tank of composition to be treated. The composition to be treated comprises boscalid at an initial concentration of 25 μg/l and an initial hydrogen peroxide concentration of 2 mg/l.
The photolysis chamber is formed of a rigid tubular envelope, of which the external wall is opaque to light and forming an inner space suitable for receiving five fluorescent tubes with a longitudinal axis extending in parallel with the longitudinal axis of the rigid tubular envelope. The inner volume of the decontamination reactor is in the order of 32 l. The five fluorescent tubes are tubes of 200 W emitting light at a wavelength of 254 nm and arranged longitudinally in the tubular envelope at the five points of a regular pentagon and in contact with the water to be treated flowing in the photolysis chamber.
After 10 minutes of operation of the semi-industrial pilot device, almost all of the composition to be treated has been illuminated in the photolysis chamber. […]

For `O=C(Nc1ccccc1-c1ccc(Cl)cc1)c1cccnc1Cl` [boscalid], the “final rate of degradation” value [1] was 95%, the initial degradation [1] was “equivalent to that obtained with the addition of hydrogen peroxide at the concentration of 13 mg/l” and the “degradation of the initial boscalid” value ([1]; 1 h) was 10%. The “residual amount of boscalid” value [2] was “less than 80%” and the “rate of degradation of the initial boscalid” value [3] was 58%.
